According to PubChem BioAssay AID2296 (NMMLSC, 2010):

Biological target: Regulator of G-protein signaling 7 (Homo sapiens) (UniProt P49802)
Assay: RGS7-Galphao binding modulators, SAR follow-up, biochemical, multiplexed bead flow cytometry, SAR compounds (AID 2296)
Details: bead-based flow cytometry, AF488-Galphao binding to RGS7; for Ki: measured here: Ki from EC50 fit

Sequence of Regulator of G-protein signaling 7 (Homo sapiens) (P49802 whole entry, looked up): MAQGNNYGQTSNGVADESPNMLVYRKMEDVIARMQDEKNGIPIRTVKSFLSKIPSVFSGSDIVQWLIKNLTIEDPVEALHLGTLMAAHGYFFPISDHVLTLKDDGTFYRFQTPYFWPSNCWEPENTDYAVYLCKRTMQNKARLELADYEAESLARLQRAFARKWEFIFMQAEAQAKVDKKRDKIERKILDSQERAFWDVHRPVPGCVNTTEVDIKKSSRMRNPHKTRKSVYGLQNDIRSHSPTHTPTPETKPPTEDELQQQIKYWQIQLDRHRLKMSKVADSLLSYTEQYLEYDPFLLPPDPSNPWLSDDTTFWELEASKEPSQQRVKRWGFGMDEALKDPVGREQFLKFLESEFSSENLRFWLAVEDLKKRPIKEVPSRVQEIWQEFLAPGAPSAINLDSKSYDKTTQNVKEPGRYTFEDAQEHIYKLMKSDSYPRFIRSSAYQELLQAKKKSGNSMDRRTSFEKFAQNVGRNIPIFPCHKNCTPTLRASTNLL

SMILES | Ki | EC50
CCN(CC)S(=O)(=O)c1cccc(C(=O)N/N=C/c2ccc(O)c(O)c2O)c1 | 320 nM | 
COc1ccc(C2=CC(=O)C=CC2=O)cc1 | 300 nM | 
Cc1[nH]n(-c2ccccc2)c(=S)c1C=NCCCN=Cc1c(C)[nH]n(-c2ccccc2)c1=S | 1870 nM | 
CN=c1scc(C)n1/N=C/c1ccc(O)c(O)c1O | 210 nM | 
CCC(=O)NC(c1ccc(C)cc1)c1cc([N+](=O)[O-])c2cccnc2c1O (stereo not drawn) | 3750 nM | 
NS(=O)(=O)c1ccc(N/N=C/c2ccc(O)c(O)c2O)c([N+](=O)[O-])c1 | 120 nM | 141 nM
CCN=c1scc(C)n1/N=C/c1ccc(O)c(O)c1O | 380 nM | 

Other lines, results leading:

Ki | EC50 | SMILES
360 nM |  | O=C(Cc1csc(N2CCOCC2)n1)N/N=C/c1ccc(O)c(O)c1O
120 nM |  | Nc1c(C(=O)NCC2CCCO2)sc2nc3c(c(-c4ccco4)c12)CC/C3=C/c1ccco1 (stereo not drawn)
70 nM |  | CN1CCN(C2=C(Cl)C(=O)C(c3cnc(N4CCCCC4)s3)=C(Cl)C2=O)CC1
1600 nM |  | CC1(C)OC(=O)C(=Cc2ccc(-c3ccc(S(N)(=O)=O)cc3)o2)C(=O)O1
130 nM |  | O=C1C(Cl)=C(N2CCCCC2)C(=O)C(Cl)=C1c1cnc(N2CCCCC2)s1
